{"source": "ChEMBL document CHEMBL6092157", "about": "“PET imaging assist investigation of HDAC6 expression change in MDD and evaluating antidepressant efficacy of a newly developed HDAC6 inhibitor” (Eur J Med Chem, 2024)", "key": {"[1]": {"experiment": "Drug uptake in spleen of chronic unpredictable mild stress C57BL/6 mouse model by PET imaging analysis", "type": "ADME, tissue-based", "conditions": "in vivo"}, "[2]": {"experiment": "Drug uptake in kidney of chronic unpredictable mild stress C57BL/6 mouse model by PET imaging analysis", "type": "ADME, tissue-based", "conditions": "in vivo"}, "[3]": {"experiment": "Drug uptake in liver of chronic unpredictable mild stress C57BL/6 mouse model by PET imaging analysis", "type": "ADME, tissue-based", "conditions": "in vivo"}, "[4]": {"experiment": "Drug uptake in heart of chronic unpredictable mild stress C57BL/6 mouse model by PET imaging analysis", "type": "ADME, tissue-based", "conditions": "in vivo"}, "[5]": {"experiment": "Drug uptake in lung of chronic unpredictable mild stress C57BL/6 mouse model by PET imaging analysis", "type": "ADME, tissue-based", "conditions": "in vivo"}, "[6]": {"experiment": "Drug uptake in striatum of chronic unpredictable mild stress C57BL/6 mouse model by PET imaging analysis", "type": "ADME, tissue-based", "conditions": "in vivo"}, "[7]": {"experiment": "Drug uptake in hippocampus of chronic unpredictable mild stress C57BL/6 mouse model by PET imaging analysis", "type": "ADME, tissue-based", "conditions": "in vivo"}, "[8]": {"experiment": "Drug uptake in hypothalamus of chronic unpredictable mild stress C57BL/6 mouse model by PET imaging analysis", "type": "ADME, tissue-based", "conditions": "in vivo"}, "[9]": {"experiment": "Cmax in C57BL/6 mouse at 20 mg/kg, ip by LC-MS/MS analysis", "type": "ADME, organism-based", "conditions": "in vivo"}, "[10]": {"experiment": "Tmax in C57BL/6 mouse at 20 mg/kg, ip by LC-MS/MS analysis", "type": "ADME, organism-based", "conditions": "in vivo"}, "[11]": {"experiment": "Half life in C57BL/6 mouse at 20 mg/kg, ip by LC-MS/MS analysis", "type": "ADME, organism-based", "conditions": "in vivo"}, "[12]": {"experiment": "MRT (0 to infinity) in C57BL/6 mouse at 20 mg/kg, ip by LC-MS/MS analysis", "type": "ADME, organism-based", "conditions": "in vivo"}, "[13]": {"experiment": "AUC (0 to infinity) in C57BL/6 mouse at 20 mg/kg, ip by LC-MS/MS analysis", "type": "ADME, organism-based", "conditions": "in vivo"}, "[14]": {"experiment": "[…] bioavailability in C57BL/6 mouse at 20 mg/kg by LC-MS/MS analysis", "type": "ADME, organism-based", "conditions": "in vivo"}, "[15]": {"experiment": "Cmax in C57BL/6 mouse at 20 mg/kg, iv by LC-MS/MS analysis", "type": "ADME, organism-based", "conditions": "in vivo"}, "[16]": {"experiment": "Half life in C57BL/6 mouse at 20 mg/kg, iv by LC-MS/MS analysis", "type": "ADME, organism-based", "conditions": "in vivo"}, "[17]": {"experiment": "MRT (0 to infinity) in C57BL/6 mouse at 20 mg/kg, iv by LC-MS/MS analysis", "type": "ADME, organism-based", "conditions": "in vivo"}, "[18]": {"experiment": "AUC (0 to infinity) in C57BL/6 mouse at 20 mg/kg, iv by LC-MS/MS analysis", "type": "ADME, organism-based", "conditions": "in vivo"}, "[19]": {"experiment": "Drug concentration in brain of C57BL/6 mouse at 1 mg/kg, ip measured for 0.5 hrs by LC-MS/MS analysis", "type": "ADME, organism-based", "conditions": "read-out: Ct"}, "[20]": {"experiment": "Drug concentration in plasma of C57BL/6 mouse at 1 mg/kg, ip measured for 0.5 hrs by LC-MS/MS analysis", "type": "ADME, organism-based"}, "[21]": {"experiment": "Ratio of drug concentration in brain to plasma of C57BL/6 mouse at 1 mg/kg, ip measured for 0.5 hrs by LC-MS/MS analysis", "type": "ADME, organism-based", "conditions": "read-out: BPR"}, "[22]": {"experiment": "Drug concentration in brain of C57BL/6 mouse at 1 mg/kg, ip measured for 1 hr by LC-MS/MS analysis", "type": "ADME, organism-based", "conditions": "read-out: Ct"}, "[23]": {"experiment": "Drug concentration in plasma of C57BL/6 mouse at 1 mg/kg, ip measured for 1 hr by LC-MS/MS analysis", "type": "ADME, organism-based"}, "[24]": {"experiment": "Ratio of drug concentration in brain to plasma of C57BL/6 mouse at 1 mg/kg, ip measured for 1 hr by LC-MS/MS analysis", "type": "ADME, organism-based", "conditions": "read-out: BPR"}, "[25]": {"experiment": "Drug concentration in brain of C57BL/6 mouse at 1 mg/kg, ip measured for 4 hrs by LC-MS/MS analysis", "type": "ADME, organism-based", "conditions": "read-out: Ct"}, "[26]": {"experiment": "Drug concentration in plasma of C57BL/6 mouse at 1 mg/kg, ip measured for 4 hrs by LC-MS/MS analysis", "type": "ADME, organism-based"}, "[27]": {"experiment": "Ratio of drug concentration in brain to plasma of C57BL/6 mouse at 1 mg/kg, ip measured for 4 hrs by LC-MS/MS analysis", "type": "ADME, organism-based", "conditions": "read-out: BPR"}, "[28]": {"tested_on": "Mus musculus", "experiment": "Antidepressant activity in chronic unpredictable mild stress C57BL/6 mouse model assessed as shorter feeding latency to eat at 20 mg/kg, ip qd for 21 days by novelty-suppressed feeding test", "type": "functional, organism-based", "conditions": "time 21.0 day"}, "[29]": {"tested_on": "Mus musculus", "experiment": "Antidepressant activity in chronic unpredictable mild stress C57BL/6 mouse model assessed as longer duration spent in central area of open field at 20 mg/kg, ip qd for 21 days by open field test", "type": "functional, organism-based", "conditions": "time 21.0 day"}, "[30]": {"tested_on": "Mus musculus", "experiment": "Antidepressant activity in chronic unpredictable mild stress C57BL/6 mouse model assessed as longer duration spent in central area at 20 mg/kg, ip qd for 21 days by open field test", "type": "functional, organism-based", "conditions": "time 21.0 day"}, "[31]": {"tested_on": "Mus musculus", "experiment": "Antidepressant activity in chronic unpredictable mild stress C57BL/6 mouse model assessed as reduction in immobility time at 20 mg/kg, ip qd for 21 days by tail suspension test", "type": "functional, organism-based", "conditions": "time 21.0 day"}, "[32]": {"experiment": "Toxicity in chronic unpredictable mild stress C57BL/6 mouse model assessed as animal death at 20 mg/kg, ip qd for 21 days", "type": "organism-based", "conditions": "in vivo, 504 h, time 21 day"}, "[33]": {"experiment": "Toxicity in chronic unpredictable mild stress C57BL/6 mouse model assessed as histomorphological changes at 20 mg/kg, ip qd for 21 days", "type": "organism-based", "conditions": "in vivo, 504 h, time 21 day"}, "[34]": {"experiment": "Toxicity in chronic unpredictable mild stress C57BL/6 mouse model assessed as abnormality in organs at 20 mg/kg, ip qd for 21 days by H and E staining based analysis", "type": "organism-based", "conditions": "in vivo, 504 h, time 21 day"}, "[35]": {"experiment": "Toxicity in chronic unpredictable mild stress C57BL/6 mouse model assessed as damage in organs at 20 mg/kg, ip qd for 21 days by H and E staining based analysis", "type": "organism-based", "conditions": "in vivo, 504 h, time 21 day"}, "[36]": {"biological_target": "T1, Protein deacetylase HDAC6 (Mus musculus) (UniProt Q9Z2V5)", "T1 sequence (whole entry)": "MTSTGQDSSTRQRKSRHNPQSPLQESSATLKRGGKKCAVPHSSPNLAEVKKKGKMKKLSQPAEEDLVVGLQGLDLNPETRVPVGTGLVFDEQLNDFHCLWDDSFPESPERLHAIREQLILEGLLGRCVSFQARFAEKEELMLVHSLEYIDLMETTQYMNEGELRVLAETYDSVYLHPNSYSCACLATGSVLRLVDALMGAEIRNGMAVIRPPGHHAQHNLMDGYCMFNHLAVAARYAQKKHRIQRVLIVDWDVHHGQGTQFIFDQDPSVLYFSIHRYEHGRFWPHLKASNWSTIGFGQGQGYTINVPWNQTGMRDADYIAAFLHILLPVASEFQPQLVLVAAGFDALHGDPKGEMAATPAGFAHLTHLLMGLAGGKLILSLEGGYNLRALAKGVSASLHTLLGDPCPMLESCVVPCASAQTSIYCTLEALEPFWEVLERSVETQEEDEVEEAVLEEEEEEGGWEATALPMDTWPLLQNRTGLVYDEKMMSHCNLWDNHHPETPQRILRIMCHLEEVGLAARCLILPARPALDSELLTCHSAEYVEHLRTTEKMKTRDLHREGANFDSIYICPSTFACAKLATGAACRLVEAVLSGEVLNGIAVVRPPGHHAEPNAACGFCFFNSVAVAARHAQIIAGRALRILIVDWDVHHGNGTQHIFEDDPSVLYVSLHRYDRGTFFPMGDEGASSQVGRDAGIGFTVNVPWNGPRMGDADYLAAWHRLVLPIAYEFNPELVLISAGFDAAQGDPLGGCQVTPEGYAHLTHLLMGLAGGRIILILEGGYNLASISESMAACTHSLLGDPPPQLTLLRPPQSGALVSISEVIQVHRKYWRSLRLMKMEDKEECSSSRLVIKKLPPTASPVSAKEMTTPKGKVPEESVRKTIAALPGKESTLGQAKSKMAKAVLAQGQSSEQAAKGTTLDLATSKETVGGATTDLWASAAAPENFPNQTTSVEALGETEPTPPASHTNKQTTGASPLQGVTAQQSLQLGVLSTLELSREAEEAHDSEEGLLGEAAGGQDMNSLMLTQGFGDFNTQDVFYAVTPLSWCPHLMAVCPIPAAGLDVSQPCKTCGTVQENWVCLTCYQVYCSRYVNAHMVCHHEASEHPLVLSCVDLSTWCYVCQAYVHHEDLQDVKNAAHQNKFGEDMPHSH", "experiment": "In vivo inhibition of HDAC6 in brain of chronic unpredictable mild stress C57BL/6 mouse model by IHC analysis", "type": "functional, organism-based"}, "[37]": {"species": "Mus musculus", "experiment": "Upregulation of tubulin acetylation in brain of chronic unpredictable mild stress C57BL/6 mouse model by IHC analysis", "type": "functional, organism-based"}}, "note": "Calls of active or inactive are those of the source. The rule behind the calls is not given here."}
{"smiles": "CN(Cc1ccc(C(=O)NO)cc1[18F])CC12CC3CC(CC(C3)C1)C2", "values": [{"measurement": "Drug uptake", "setting": "[1]", "result": "Active"}, {"measurement": "Drug uptake", "setting": "[2]", "result": "Active"}, {"measurement": "Drug uptake", "setting": "[3]", "result": "Active"}, {"measurement": "Drug uptake", "setting": "[4]", "result": "Active"}, {"measurement": "Drug uptake", "setting": "[5]", "result": "Active"}, {"measurement": "Drug uptake", "setting": "[6]", "result": "Active"}, {"measurement": "Drug uptake", "setting": "[7]", "result": "Active"}, {"measurement": "Drug uptake", "setting": "[8]", "result": "Active"}]}
{"smiles": "Cc1ccc2c(n1)N(Cc1ccc(C(=O)NO)cc1F)CCC2", "values": [{"measurement": "Cmax", "setting": "[9]", "result": 1510, "unit": "ng/mL"}, {"measurement": "Tmax", "setting": "[10]", "result": 4.98, "unit": "min"}, {"measurement": "half-life", "setting": "[11]", "result": 54.6, "unit": "min"}, {"measurement": "MRT inf", "setting": "[12]", "result": 24, "unit": "min"}, {"measurement": "AUC(0-inf)", "setting": "[13]", "result": 522, "unit": "ng·h/mL"}, {"measurement": "bioavailability", "setting": "[14]", "result": 47.7, "unit": "%"}, {"measurement": "Cmax", "setting": "[15]", "result": 3600, "unit": "ng/mL"}, {"measurement": "half-life", "setting": "[16]", "result": 33, "unit": "min"}, {"measurement": "MRT inf", "setting": "[17]", "result": 17.4, "unit": "min"}, {"measurement": "AUC(0-inf)", "setting": "[18]", "result": 1090, "unit": "ng·h/mL"}, {"measurement": "concentration at 0.5 h", "setting": "[19]", "result": 26.5, "unit": "ng/mL"}, {"measurement": "concentration at 0.5 h", "setting": "[20]", "result": 3.3, "unit": "ng/mL"}, {"measurement": "Kp at 0.5 h", "setting": "[21]", "result": 7.9}, {"measurement": "concentration at 1 h", "setting": "[22]", "result": 10.3, "unit": "ng/mL"}, {"measurement": "concentration at 1 h", "setting": "[23]", "result": 2.6, "unit": "ng/mL"}, {"measurement": "Kp at 1 h", "setting": "[24]", "result": 3.9}, {"measurement": "concentration at 4 h", "setting": "[25]", "result": 0.42, "unit": "ng/mL"}, {"measurement": "concentration at 4 h", "setting": "[26]", "result": 0.21, "unit": "ng/mL"}, {"measurement": "Kp at 4 h", "setting": "[27]", "result": 2.1}, {"measurement": "Activity", "setting": "[28]", "result": "Active"}, {"measurement": "Activity", "setting": "[29]", "result": "Active"}, {"measurement": "Activity", "setting": "[30]", "result": "Active"}, {"measurement": "Activity", "setting": "[31]", "result": "Active"}, {"measurement": "Activity", "setting": "[32]", "result": "Non-toxic"}, {"measurement": "Activity", "setting": "[33]", "result": "Non-toxic"}, {"measurement": "Activity", "setting": "[34]", "result": "Non-toxic"}, {"measurement": "Activity", "setting": "[35]", "result": "Non-toxic"}, {"measurement": "inhibition", "setting": "[36]", "result": "Active"}, {"measurement": "Activity", "setting": "[37]", "result": "Active"}]}
